How the values were obtained:
[1] = Inhibition of HCV genotype 1a NS5B RNA dependent RNA polymerase infected in human HuH7 replicon cells after 3 days by luciferase reporter gene assay
[2] = Inhibition of HCV genotype 1b NS5B RNA dependent RNA polymerase infected in human HuH7 replicon cells after 3 days by luciferase reporter gene assay
[3] = Inhibition of HCV genotype 2a JFH1 NS5B RNA dependent RNA polymerase infected in human HuH7 replicon cells after 3 days by luciferase reporter gene assay
[4] = Inhibition of HCV genotype 1b NS5B RNA dependent RNA polymerase C316N mutant infected in human HuH7 replicon cells after 3 days by luciferase reporter gene assay

Compound | EC50 [1] [nM] | EC50 [2] [nM] | EC50 [3] [nM] | EC50 [4] [nM]
CCNc1cc2oc(-c3ccc(F)cc3)c(C(=O)NC)c2cc1-c1ccc(OC)c(C(=O)NC2(c3ncccn3)CC2)c1 | 2.3 | 1.2 | 12 | 3.6
CCN(C(=O)C(F)(F)F)c1cc2oc(-c3ccc(F)cc3)c(C(=O)NC)c2cc1-c1ccc(OC)c(C(=O)NC2(c3ncccn3)CC2)c1 |  |  | 20 | 
CNC(=O)c1c(-c2ccc(F)cc2)oc2ccc(-c3cccc(C(=O)NC4(c5ccccn5)CC4)c3)cc12 | 36 | 3.8 | 515 | 75
CNC(=O)c1c(-c2ccc(F)cc2)oc2cc(N(CCO)S(C)(=O)=O)c(-c3cccc(C(=O)NC4(c5ccccn5)CC4)c3)cc12 | 35 | 52 | 22 | 385
CNC(=O)c1c(-c2ccc(F)cc2)oc2cc(N(CCO)S(C)(=O)=O)c(-c3cccc(C(=O)NC4(c5ccccc5)CC4)c3)cc12 | 5.7 | 6.2 | 8.6 | 64
CCN(c1cc2oc(-c3ccc(F)cc3)c(C(=O)NC)c2cc1-c1cccc(C(=O)NC2(c3ncccn3)CC2)c1)S(C)(=O)=O | 7.7 | 8.8 | 5.4 | 44
CCN(c1cc2oc(-c3ccc(F)cc3)c(C(=O)NC)c2cc1-c1ccc(OC)c(C(=O)NC2(c3ncccn3)CC2)c1)S(C)(=O)=O |  |  | 13 | 
CCN(C(=O)OC)c1cc2oc(-c3ccc(F)cc3)c(C(=O)NC)c2cc1-c1ccc(OC)c(C(=O)NC2(c3ncccn3)CC2)c1 |  |  | 15 | 
CCN(C(C)=O)c1cc2oc(-c3ccc(F)cc3)c(C(=O)NC)c2cc1-c1ccc(OC)c(C(=O)NC2(c3ncccn3)CC2)c1 |  |  | 35 | 
CCN(c1cc2oc(-c3ccc(F)cc3)c(C(=O)NC)c2cc1-c1cc(Cl)c(OC)c(C(=O)NC2(c3ncccn3)CC2)c1)S(C)(=O)=O |  |  | 6.6 | 
CCN(c1cc2oc(-c3ccc(F)cc3)c(C(=O)NC)c2cc1-c1cc(F)c(F)c(C(=O)NC2(c3ncccn3)CC2)c1)S(C)(=O)=O |  |  | 9 | 
CCN(c1cc2oc(-c3ccc(F)cc3)c(C(=O)NC)c2cc1-c1cc(C)c(OC)c(C(=O)NC2(c3ncccn3)CC2)c1)S(C)(=O)=O |  |  | 16 | 
CCN(C(=O)N(C)C)c1cc2oc(-c3ccc(F)cc3)c(C(=O)NC)c2cc1-c1ccc(OC)c(C(=O)NC2(c3ncccn3)CC2)c1 |  |  | 165 | 
CCN(c1cc2oc(-c3ccc(F)cc3)c(C(=O)NC)c2cc1-c1cc(F)c(OC)c(C(=O)NC2(c3ncccn3)CC2)c1)S(C)(=O)=O |  |  | 8.8 | 

Source: BindingDB's records for doi:10.1021/acsmedchemlett.8b00379 (Bristol-Myers Squibb Research and Development, 2018)
